According to the supplement of paper PMC11061612:

Assays:
[1] = system: JSC-1 (B-Cell Non-Hodgkin's Lymphoma); experiment: combination Emax (second highest fraction inhibited in the dose matrix, 72 h); higher = more inhibition; extreme values may be limits of the assay
Summary of the method: (§1)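 Cell lines grown in DMEM/F12 or RPMI with 10% FBS were plated in 1536-well plates and held 24 hours at 37°C, 5% CO2 before 72 hours of exposure to two-drug dose matrices, with DMSO typically at 0.2%. CellTiter-Glo 2.0 luminescence gave viability, which was converted to inhibition. Vehicle wells were set to 0 and blank wells to 1. Combination Emax is the second-highest inhibition in the matrix, and Bliss excess is the observed combination effect minus the expected EA + EB − EA·EB, where EA and EB are the single-agent effects.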

[2] = system: SISO (Cervical Carcinoma); experiment: as above
Summary of the method: as §1

PA-1 (Ovarian Carcinoma) = experiment: as above
Summary of the method: as §1

[3] = system: COLO-824 (Breast Carcinoma); experiment: as above
Summary of the method: as §1

[4] = system: NCI-H1581 (Non-Small Cell Lung Carcinoma); experiment: as above
Summary of the method: as §1

[5] = system: NCI-H2066 (Squamous Cell Lung Carcinoma); experiment: as above
Summary of the method: as §1

8-MG-BA (Glioblastoma) [6] = experiment: as above
Summary of the method: as §1

[7] = system: NCI-H1650 (Lung Adenocarcinoma); experiment: as above
Summary of the method: as §1

NY (Osteosarcoma) = experiment: as above
Summary of the method: as §1

CAS-1 (Glioblastoma) = experiment: as above
Summary of the method: as §1

[8] = system: CAPAN-2 (Pancreatic Carcinoma); experiment: as above
Summary of the method: as §1

[9] = system: NCI-H64 (Small Cell Lung Carcinoma); experiment: as above
Summary of the method: as §1

[10] = system: KARPAS-422 (B-Cell Non-Hodgkin's Lymphoma); experiment: as above
Summary of the method: as §1

[11] = system: TT2609-C02 (Thyroid Gland Carcinoma); experiment: as above
Summary of the method: as §1

ARH-77 (Non-Cancerous) = experiment: as above
Summary of the method: as §1

GI-ME-N (Neuroblastoma) = experiment: as above
Summary of the method: as §1

[12] = system: BICR22 (Oral Cavity Carcinoma); experiment: as above
Summary of the method: as §1

[13] = system: NCI-H2066 (Squamous Cell Lung Carcinoma); experiment: Bliss excess, mean over the matrix (fraction); higher = more synergy
Summary of the method: as §1

8-MG-BA (Glioblastoma) [14] = experiment: as above
Summary of the method: as §1

[15] = system: CAL-29 (Bladder Carcinoma); experiment: as above
Summary of the method: as §1
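For Bliss excess, mean over the matrix in this document: after 72 h of two-drug dosing.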

Row | SMILES | combination Emax [1] | combination Emax [2] | combination Emax (PA-1 (Ovarian Carcinoma)) | combination Emax [3] | combination Emax [4] | combination Emax [5] | combination Emax (8-MG-BA (Glioblastoma) [6]) | combination Emax [7] | combination Emax (NY (Osteosarcoma)) | combination Emax (CAS-1 (Glioblastoma)) | combination Emax [8] | combination Emax [9] | combination Emax [10] | combination Emax [11] | combination Emax (ARH-77 (Non-Cancerous)) | combination Emax (GI-ME-N (Neuroblastoma)) | combination Emax [12] | Bliss excess [13] | Bliss excess (8-MG-BA (Glioblastoma) [14]) | Bliss excess [15]
1 | NC1(C(=O)N[C@@H](CCO)c2ccc(Cl)cc2)CCN(c2ncnc3[nH]ccc23)CC1 [Capivasertib] + CCN(CCO)CCCOc1ccc2c(Nc3cc(CC(=O)Nc4cccc(F)c4)[nH]n3)ncnc2c1 [AZD2811] (first compound max 10 µM, 7x7, partner max 1 µM) | 0.69 | 0.477 | 0.918 | 0.85 | 0.469 | 0.534 | 0.508 | 0.351 | 0.257 | 0.635 | 0.219 | 0.668 | 0.531 | 0.542 | 0.748 | 0.324 | 0.562 | -0.0641 | 0.0289 | -0.0319
2 | NC1(C(=O)N[C@@H](CCO)c2ccc(Cl)cc2)CCN(c2ncnc3[nH]ccc23)CC1 [Capivasertib] + CC(C)n1c(=O)n(C)c2cnc3cc(F)c(-c4ccc(OCCCN5CCCCC5)nc4)cc3c21 [AZD1390] (first compound max 10 µM, 7x7, partner max 0.3 µM) | 0.364 | 0.269 | 0.753 | 0.464 | 0.129 | 0.553 | 0.387 | 0.317 | 0.309 | 0.543 | 0.222 | 0.251 | 0.507 | 0.167 | 0.657 | 0.335 | 0.312 | -0.0222 | -0.0557 | -0.0702
3 | CN(C)CCCOc1ccc(-c2ccc3ncc4c(c3c2)n(C2CCOCC2)c(=O)n4C)cn1 [AZD0156] + CCN(CCO)CCCOc1ccc2c(Nc3cc(CC(=O)Nc4cccc(F)c4)[nH]n3)ncnc2c1 [AZD2811] (first compound max 1 µM, 7x7, partner max 1 µM) | 0.19 | 0.172 | 0.407 | 0.818 | 0.271 | 0.192 | 0.215 | 0.101 | 0.0423 | 0.263 | 0.122 | 0.461 | 0.641 | 0.258 | 0.492 | 0.0704 | 0.375 | -0.0649 | -0.0033 | 0.0269
4 | CN(CCO)CC[C@H](CSc1ccccc1)Nc1ccc(S(=O)(=O)NC(=O)c2ccc(N3CCC([C@@H](O)c4ccccc4-c4ccc(Cl)cc4)CC3)cc2)cc1S(=O)(=O)C(F)(F)F [AZD4320] + CCN(CCO)CCCOc1ccc2c(Nc3cc(CC(=O)Nc4cccc(F)c4)[nH]n3)ncnc2c1 [AZD2811] (first compound max 1 µM, 7x7, partner max 1 µM) | 0.341 | 0.401 | 0.773 | 1 | 0.445 | 0.543 | 0.21 | 0.254 | 0.121 | 0.417 | 0.776 | 1 | 0.903 | 0.505 | 0.95 | 0.19 | 0.828 | -0.0391 | 0.003 | 0.103
5 | Cc1c2c(nn1C)CSCc1cc(n(C)n1)CSc1cc(c3ccccc3c1)OCCCc1c(C(=O)O)n(C)c3c-2c(Cl)ccc13 [AZD5991] + C[C@@H]1COCCN1C2=NC(=NC(=C2)C3(CC3)[S@](=N)(=O)C)C4=C5C=CNC5=NC=C4 [AZD6738] (first compound max 1 µM, 7x7, partner max 10 µM) | 1 | 0.607 | 0.967 | 0.868 | 1 | 0.359 | 0.961 | 0.516 | 0.805 | 0.877 | 0.35 | 0.905 | 1 | 0.392 | 0.976 | 0.431 | 0.846 | 0.0148 | 0.0326 | 0.0409
6 | Cn1cnc2c(F)c(Nc3ccc(Br)cc3Cl)c(C(=O)NOCCO)cc21 [Selumetinib] + C[C@@H]1COCCN1C2=NC(=NC(=C2)C3(CC3)[S@](=N)(=O)C)C4=C5C=CNC5=NC=C4 [AZD6738] (first compound max 10 µM, 7x7, partner max 10 µM) | 0.957 | 0.43 | 0.855 | 0.718 | 0.545 | 0.43 | 0.792 | 0.333 | 0.617 | 0.545 | 0.428 | 0.808 | 0.519 | 0.506 | 0.946 | 0.312 | 0.722 | 0.004 | -0.0051 | 0.0155
7 | C[C@@H](c1ccc2nccn2c1)n1nnc2ncc(-c3cnn(C)c3)nc21 [Savolitinib] + CC1(C)CCC(CN2CCN(c3ccc(C(=O)NS(=O)(=O)c4ccc(NCC5CCOCC5)c([N+](=O)[O-])c4)c(Oc4cnc5[nH]ccc5c4)c3)CC2)=C(c2ccc(Cl)cc2)C1 [Venetoclax] (first compound max 1 µM, 7x7, partner max 1 µM) | 0.115 | 0.0509 | 0.276 | 0.61 | 0.135 | 0.195 | 0.12 | 0.127 | 0.246 | 0.212 | 0.0542 | 0.23 | 0.257 | 0.0924 | 0.251 | 0.17 | 0.108 | -0.0524 | -0.025 | -0.0655
8 | CCc1c2c(nc3ccc(O)cc13)-c1cc3c(c(=O)n1C2)COC(=O)[C@]3(O)CC [SN-38] + CN(C)CCCOc1ccc(-c2ccc3ncc4c(c3c2)n(C2CCOCC2)c(=O)n4C)cn1 [AZD0156] (first compound max 0.3 µM, 7x7, partner max 1 µM) | 0.983 | 0.928 | 0.845 | 0.509 | 0.785 | 0.154 | 0.975 | 0.501 | 0.855 | 0.494 | 0.206 | 0.407 | 0.937 | 0.441 | 0.992 | 0.345 | 0.907 | -0.0517 | 0.0392 | -0.028
9 | CC1(C)CCC(CN2CCN(c3ccc(C(=O)NS(=O)(=O)c4ccc(NCC5CCOCC5)c([N+](=O)[O-])c4)c(Oc4cnc5[nH]ccc5c4)c3)CC2)=C(c2ccc(Cl)cc2)C1 [Venetoclax] + CN(C)CCCOc1ccc(-c2ccc3ncc4c(c3c2)n(C2CCOCC2)c(=O)n4C)cn1 [AZD0156] (first compound max 1 µM, 7x7, partner max 1 µM) | 0.141 | 0.148 | 0.3 | 0.783 | 0.182 | 0.156 | 0.171 | 0.104 | 0.551 | 0.239 | 0.199 | 0.25 | 0.873 | 0.154 | 0.297 | 0.226 | 0.337 | -0.0439 | -0.0171 | -0.0219
10 | Cc1cc2ncnn2cc1Nc1ncc2c(n1)n(C1CCOCC1)c(=O)n2C [AZD7648] + C[C@@H]1COCCN1C2=NC(=NC(=C2)C3(CC3)[S@](=N)(=O)C)C4=C5C=CNC5=NC=C4 [AZD6738] (first compound max 10 µM, 7x7, partner max 10 µM) | 0.896 | 0.505 | 0.75 | 0.738 | 0.471 | 0.379 | 0.769 | 0.324 | 0.527 | 0.609 | 0.346 | 0.811 | 0.639 | 0.191 | 0.89 | 0.59 | 0.761 | 0.025 | 0.0602 | -0.012
11 | CC(=O)c1c(C)c2cnc(Nc3ccc(N4CCNCC4)cn3)nc2n(C2CCCC2)c1=O [Palbociclib] + Cn1cnc2c(F)c(Nc3ccc(Br)cc3Cl)c(C(=O)NOCCO)cc21 [Selumetinib] (first compound max 10 µM, 7x7, partner max 10 µM) | 0.633 | 0.17 | 0.827 | 0.345 | 0.536 | 0.244 | 0.321 | 0.15 | 0.194 | 0.289 | 0.356 | 0.19 | 0.81 | 0.527 | 0.61 | 0.245 | 0.477 | -0.0344 | -0.0061 | 0.0021
12 | CS(=O)(=O)CCNCc1ccc(-c2ccc3ncnc(Nc4ccc(OCc5cccc(F)c5)c(Cl)c4)c3c2)o1 [Lapatinib] + C[C@@H](Oc1cc(-c2cnn(C3CCNCC3)c2)cnc1N)c1c(Cl)ccc(F)c1Cl [Crizotinib] (first compound max 10 µM, 7x7, partner max 10 µM) | 0.925 | 0.626 | 1 | 0.94 | 0.678 | 0.58 | 0.998 | 0.799 | 0.341 | 0.962 | 0.741 | 0.823 | 0.96 | 0.476 | 0.942 | 0.392 | 0.933 | -0.0066 | -0.0365 | 0.0215
13 | CC1(C)CCC(CN2CCN(c3ccc(C(=O)NS(=O)(=O)c4ccc(NCC5CCOCC5)c([N+](=O)[O-])c4)c(Oc4cnc5[nH]ccc5c4)c3)CC2)=C(c2ccc(Cl)cc2)C1 [Venetoclax] + CCN(CCO)CCCOc1ccc2c(Nc3cc(CC(=O)Nc4cccc(F)c4)[nH]n3)ncnc2c1 [AZD2811] (first compound max 1 µM, 7x7, partner max 1 µM) | 0.332 | 0.231 | 0.527 | 1 | 0.266 | 0.226 | 0.245 | 0.207 | 0.616 | 0.271 | 0.204 | 0.792 | 0.922 | 0.418 | 0.703 | 0.186 | 0.492 | -0.0442 | 0.0065 | 0.0361
